Experiments:
Type in all cases: cell-based
human cancer cell line = experiment: Human cancer cell line activity compared with Dolastatin 10; conditions: R-dolaphenine (Doe) substitution
Excerpt: A series of Dolastatin 10 chiral isomers has been documented (See: Pettit et al., J. Med. Chem., 1990, 33, 3132). More recently these experiments were extended to synthesis of R-Doe-isodolastatin 10. […] The amide molecular length was then examined, starting with benzylamine, phenethylamine and 3-phenyl-1-propylamine. Also studied was a systematic series of modifications at the dolaphenine position introducing a substituted nitrogen instead of a phenyl ring.

OVCAR-3 = experiment: NCI human tumor cell line screen, ovarian OVCAR-3; conditions: for GI-50 / TGI: Human cancer cell; for LC-50: Human cancer cells
Excerpt: (§1) Current research in the control of cancer in the United States is coordinated by the National Cancer Institute (NCI). To determine whether a substance has anti-cancer properties, the NCI has established a systematic protocol. […] The protocol, and the established statistical means for analyzing the results obtained by the standardized testing are fully described in the literature. See: Body, Dr. Michael R., Principles & Practice of Oncology, PPO Updates, Volume 3, Number 10, October 1989, for an in depth description of the testing protocol; and Paull, K. D., "Display and Analysis of Patterns of Differential Activity of Drugs Against Human Tumor Cell Lines; Development of Mean Graph and COMPARE Algorithm", Journal of the National Cancer Institute Reports, Vol. 81, No. 14, Page 1088, Jul. 14, 1989 for a description of the methods of statistical analysis. Both of these references are incorporated herein by this reference thereto.

NCI-460 = experiment: NCI human tumor cell line screen, Lung-NSC NCI-460; conditions: for GI-50 / TGI: Human cancer cell; for LC-50: Human cancer cells
Excerpt: as §1

SK-MEL-3 = experiment: NCI human tumor cell line screen, melanoma SK-MEL-3; conditions: for GI-50 / TGI: Human cancer cell; for LC-50: Human cancer cells
Excerpt: (§2) Current research in the control of cancer in the United States is coordinated by the National Cancer Institute (NCI). To determine whether a substance has anti-cancer properties, the NCI has established a systematic protocol. This protocol, which involves the testing of a substance against a standard cell line panel containing 60 human tumor cell lines, has been verified and has been accepted in scientific circles. The protocol, and the established statistical means for analyzing the results obtained by the standardized testing are fully described in the literature. See: Body, Dr. Michael R., Principles & Practice of Oncology, PPO Updates, Volume 3, Number 10, October 1989, for an in depth description of the testing protocol; and Paull, K. D., "Display and Analysis of Patterns of Differential Activity of Drugs Against Human Tumor Cell Lines; Development of Mean Graph and COMPARE Algorithm", Journal of the National Cancer Institute Reports, Vol. 81, No. 14, Page 1088, Jul. 14, 1989 for a description of the methods of statistical analysis. Both of these references are incorporated herein by this reference thereto.
(§3) The extraordinary inhibition of cell growth shown by the tetrapeptide 6a-k against six major types of human cancer and against the murine P388 lymphocytic leukemia cell line has been presented in Table 1-2, below.

KM20L2 = experiment: NCI human tumor cell line screen, colon KM20L2; conditions: for GI-50 / TGI: Human cancer cell; for LC-50: Human cancer cells
Excerpt: as §1

SF-295 = experiment: NCI human tumor cell line screen, CNS SF-295; conditions: for GI-50 / TGI: Human cancer cell; for LC-50: Human cancer cells
Excerpt: as §2, §3

A498 = experiment: NCI human tumor cell line screen, renal A498; conditions: for GI-50 / TGI: Human cancer cell; for LC-50: Human cancer cells
Excerpt: as §1

P-388 = experiment: Murine P388 lymphocytic leukemia cell growth inhibition; conditions: Mouse leukemia cell P-388
Excerpt: as §3

R-Doe-isodolastatin 10
human cancer cell line activity when compared with Dolastatin 10 (human cancer cell line): does not result in any significant difference

[2S-[1[1R*(R*),2S*],2R*[1S*,2S*]]]-N,N-dimethyl-L-valyl-N-[2-methoxy-4-[2-[1-methoxy-2-methyl-3-oxo-3-[[2-(4-nitro-phenyl)-ethyl]amino]propyl]-1-pyrrolidinyl-1-(methylpropyl)-4-oxo butyl]-N-methyl-L-valineamide [Peptide 6b]
GI-50 (OVCAR-3): 0.00024 µg/mL | TGI (OVCAR-3): 0.65 ng/mL | LC-50 (OVCAR-3): > 0.01 µg/mL | GI-50 (NCI-460): 0.00028 µg/mL | TGI (NCI-460): 1.2 ng/mL | LC-50 (NCI-460): > 0.01 µg/mL | GI-50 (SK-MEL-3): 0.00012 µg/mL | TGI (SK-MEL-3): 1.3 ng/mL | LC-50 (SK-MEL-3): > 0.01 µg/mL | GI-50 (KM20L2): 0.0003 µg/mL | TGI (KM20L2): 1.3 ng/mL | LC-50 (KM20L2): > 0.01 µg/mL | GI-50 (SF-295): 0.00035 µg/mL | TGI (SF-295): > 10 ng/mL | LC-50 (SF-295): > 0.01 µg/mL | GI-50 (A498): 0.00064 µg/mL | TGI (A498): > 10 ng/mL | LC-50 (A498): > 0.01 µg/mL | ED-50 (P-388): 0.0459 µg/mL

[2S-[1[1R*(R*),2S],2R*[1S*,2S*]]]-N,N-dimethyl-L-valyl-N-[2-methoxy-4-[2-[1-methoxy-2-methyl-3-oxo-3-[[2-(3,4-dimethoxy-phenyl)-ethyl]amino]propyl]-1- pyrrolidinyl-1-(methylpropyl)-4-oxobutyl]-N-methyl-L-valineamide [Peptide 6a]
GI-50 (OVCAR-3): 0.000007 µg/mL | TGI (OVCAR-3): 0.061 ng/mL | LC-50 (OVCAR-3): > 0.0001 µg/mL | GI-50 (NCI-460): 0.000031 µg/mL | TGI (NCI-460): 0.094 ng/mL | LC-50 (NCI-460): > 0.0001 µg/mL | GI-50 (SK-MEL-3): 0.000018 µg/mL | TGI (SK-MEL-3): 0.058 ng/mL | LC-50 (SK-MEL-3): > 0.0001 µg/mL | GI-50 (KM20L2): 0.000025 µg/mL | TGI (KM20L2): 0.061 ng/mL | LC-50 (KM20L2): > 0.0001 µg/mL | GI-50 (SF-295): 0.000029 µg/mL | TGI (SF-295): 0.083 ng/mL | LC-50 (SF-295): > 0.0001 µg/mL | GI-50 (A498): 0.000016 µg/mL | TGI (A498): > 0.1 ng/mL | LC-50 (A498): > 0.0001 µg/mL | ED-50 (P-388): 0.0035 µg/mL
